# According to the NIST ThermoML archive (doi:10.1021/je700499d):
# Numbers after ± are expanded uncertainties.
# What was measured:
# [1] = xn = mol fraction of the nth substance listed; details: 101 kPa, Liquid
# [2] = 101 kPa, Liquid
smiles,measurement,setting,value
"OCCCO [propan-1,3-diol] + OCCCCO",mass density,"[1]; 293.15 K, x2 = 0",1053.66 ± 0.59 kg/m3
same,mass density,"[1]; 293.15 K, x2 = 0.0858",1049.89 ± 0.57 kg/m3
same,mass density,"[1]; 293.15 K, x2 = 0.1743",1046.21 ± 0.56 kg/m3
same,mass density,"[1]; 293.15 K, x2 = 0.2657",1042.49 ± 0.55 kg/m3
same,mass density,"[1]; 293.15 K, x2 = 0.3602",1038.78 ± 0.54 kg/m3
same,mass density,"[1]; 293.15 K, x2 = 0.4578",1035.05 ± 0.53 kg/m3
same,mass density,"[1]; 293.15 K, x2 = 0.5588",1031.27 ± 0.52 kg/m3
same,mass density,"[1]; 293.15 K, x2 = 0.6633",1027.52 ± 0.51 kg/m3
same,mass density,"[1]; 293.15 K, x2 = 0.7716",1023.77 ± 0.5 kg/m3
same,mass density,"[1]; 293.15 K, x2 = 0.8837",1020.05 ± 0.5 kg/m3
same,mass density,"[1]; 298.15 K, x2 = 0",1050.29 ± 0.61 kg/m3
same,mass density,"[1]; 298.15 K, x2 = 0.0858",1046.56 ± 0.59 kg/m3
same,mass density,"[1]; 298.15 K, x2 = 0.1743",1042.87 ± 0.58 kg/m3
same,mass density,"[1]; 298.15 K, x2 = 0.2657",1039.2 ± 0.57 kg/m3
same,mass density,"[1]; 298.15 K, x2 = 0.3602",1035.48 ± 0.56 kg/m3
same,mass density,"[1]; 298.15 K, x2 = 0.4578",1031.77 ± 0.55 kg/m3
same,mass density,"[1]; 298.15 K, x2 = 0.5588",1027.98 ± 0.54 kg/m3
same,mass density,"[1]; 298.15 K, x2 = 0.6633",1024.23 ± 0.53 kg/m3
same,mass density,"[1]; 298.15 K, x2 = 0.7716",1020.48 ± 0.52 kg/m3
same,mass density,"[1]; 298.15 K, x2 = 0.8837",1016.74 ± 0.52 kg/m3
same,mass density,"[1]; 303.15 K, x2 = 0",1047.09 ± 0.63 kg/m3
same,mass density,"[1]; 303.15 K, x2 = 0.0858",1043.39 ± 0.61 kg/m3
same,mass density,"[1]; 303.15 K, x2 = 0.1743",1039.74 ± 0.6 kg/m3
same,mass density,"[1]; 303.15 K, x2 = 0.2657",1036.07 ± 0.59 kg/m3
same,mass density,"[1]; 303.15 K, x2 = 0.3602",1032.39 ± 0.58 kg/m3
same,mass density,"[1]; 303.15 K, x2 = 0.4578",1028.69 ± 0.57 kg/m3
same,mass density,"[1]; 303.15 K, x2 = 0.5523",1024.89 ± 0.56 kg/m3
same,mass density,"[1]; 303.15 K, x2 = 0.6574",1021.16 ± 0.55 kg/m3
same,mass density,"[1]; 303.15 K, x2 = 0.7669",1017.41 ± 0.54 kg/m3
same,mass density,"[1]; 303.15 K, x2 = 0.881",1013.68 ± 0.54 kg/m3
same,mass density,"[1]; 308.15 K, x2 = 0",1043.92 ± 0.65 kg/m3
same,mass density,"[1]; 308.15 K, x2 = 0.0858",1040.26 ± 0.63 kg/m3
same,mass density,"[1]; 308.15 K, x2 = 0.1743",1036.61 ± 0.62 kg/m3
same,mass density,"[1]; 308.15 K, x2 = 0.2657",1032.95 ± 0.61 kg/m3
same,mass density,"[1]; 308.15 K, x2 = 0.3602",1029.26 ± 0.6 kg/m3
same,mass density,"[1]; 308.15 K, x2 = 0.4578",1025.57 ± 0.59 kg/m3
same,mass density,"[1]; 308.15 K, x2 = 0.5588",1021.77 ± 0.58 kg/m3
same,mass density,"[1]; 308.15 K, x2 = 0.6633",1018.03 ± 0.57 kg/m3
same,mass density,"[1]; 308.15 K, x2 = 0.7716",1014.27 ± 0.56 kg/m3
same,mass density,"[1]; 308.15 K, x2 = 0.8837",1010.51 ± 0.56 kg/m3
same,mass density,"[1]; 313.15 K, x2 = 0",1040.61 ± 0.67 kg/m3
same,mass density,"[1]; 313.15 K, x2 = 0.0858",1036.99 ± 0.65 kg/m3
same,mass density,"[1]; 313.15 K, x2 = 0.1743",1033.39 ± 0.64 kg/m3
same,mass density,"[1]; 313.15 K, x2 = 0.2657",1029.75 ± 0.63 kg/m3
same,mass density,"[1]; 313.15 K, x2 = 0.3602",1026.07 ± 0.62 kg/m3
same,mass density,"[1]; 313.15 K, x2 = 0.4578",1022.39 ± 0.61 kg/m3
same,mass density,"[1]; 313.15 K, x2 = 0.5588",1018.61 ± 0.6 kg/m3
same,mass density,"[1]; 313.15 K, x2 = 0.6633",1014.87 ± 0.59 kg/m3
same,mass density,"[1]; 313.15 K, x2 = 0.7716",1011.08 ± 0.58 kg/m3
same,mass density,"[1]; 313.15 K, x2 = 0.8837",1007.33 ± 0.58 kg/m3
same,mass density,"[1]; 318.15 K, x2 = 0",1037.6 ± 0.69 kg/m3
same,mass density,"[1]; 318.15 K, x2 = 0.0858",1034.04 ± 0.68 kg/m3
same,mass density,"[1]; 318.15 K, x2 = 0.1743",1030.48 ± 0.66 kg/m3
same,mass density,"[1]; 318.15 K, x2 = 0.2657",1026.88 ± 0.65 kg/m3
same,mass density,"[1]; 318.15 K, x2 = 0.3602",1023.21 ± 0.64 kg/m3
same,mass density,"[1]; 318.15 K, x2 = 0.4578",1019.53 ± 0.63 kg/m3
same,mass density,"[1]; 318.15 K, x2 = 0.5588",1015.78 ± 0.62 kg/m3
same,mass density,"[1]; 318.15 K, x2 = 0.6633",1012.06 ± 0.61 kg/m3
same,mass density,"[1]; 318.15 K, x2 = 0.7716",1008.27 ± 0.6 kg/m3
same,mass density,"[1]; 318.15 K, x2 = 0.8837",1004.52 ± 0.6 kg/m3
same,mass density,"[1]; 323.15 K, x2 = 0",1034.51 ± 0.71 kg/m3
same,mass density,"[1]; 323.15 K, x2 = 0.0858",1030.99 ± 0.7 kg/m3
same,mass density,"[1]; 323.15 K, x2 = 0.1743",1027.5 ± 0.68 kg/m3
same,mass density,"[1]; 323.15 K, x2 = 0.2657",1023.9 ± 0.67 kg/m3
same,mass density,"[1]; 323.15 K, x2 = 0.3602",1020.26 ± 0.66 kg/m3
same,mass density,"[1]; 323.15 K, x2 = 0.4578",1016.6 ± 0.65 kg/m3
same,mass density,"[1]; 323.15 K, x2 = 0.5588",1012.86 ± 0.64 kg/m3
same,mass density,"[1]; 323.15 K, x2 = 0.6633",1009.17 ± 0.63 kg/m3
same,mass density,"[1]; 323.15 K, x2 = 0.7716",1005.36 ± 0.63 kg/m3
same,mass density,"[1]; 323.15 K, x2 = 0.8837",1001.61 ± 0.62 kg/m3
same,mass density,"[1]; 328.15 K, x2 = 0",1031 ± 0.73 kg/m3
same,mass density,"[1]; 328.15 K, x2 = 0.0858",1027.53 ± 0.72 kg/m3
same,mass density,"[1]; 328.15 K, x2 = 0.1743",1024.08 ± 0.71 kg/m3
same,mass density,"[1]; 328.15 K, x2 = 0.2657",1020.5 ± 0.69 kg/m3
same,mass density,"[1]; 328.15 K, x2 = 0.3602",1016.86 ± 0.68 kg/m3
same,mass density,"[1]; 328.15 K, x2 = 0.4578",1013.22 ± 0.67 kg/m3
same,mass density,"[1]; 328.15 K, x2 = 0.5588",1009.51 ± 0.66 kg/m3
same,mass density,"[1]; 328.15 K, x2 = 0.6633",1005.8 ± 0.66 kg/m3
same,mass density,"[1]; 328.15 K, x2 = 0.7716",1001.99 ± 0.65 kg/m3
same,mass density,"[1]; 328.15 K, x2 = 0.8837",998.24 ± 0.64 kg/m3
"OCCO [1,2-ethanediol] + OCCCCO",mass density,"[1]; 293.15 K, x2 = 0",1113.55 ± 0.61 kg/m3
same,mass density,"[1]; 303.15 K, x2 = 0",1106.82 ± 0.65 kg/m3
same,mass density,"[1]; 313.15 K, x2 = 0",1099.8 ± 0.69 kg/m3
same,mass density,"[1]; 323.15 K, x2 = 0",1092.59 ± 0.73 kg/m3
"OCCO [1,2-ethanediol]",mass density,[2]; 293.15 K,1113.55 ± 0.61 kg/m3
same,mass density,[2]; 303.15 K,1106.82 ± 0.65 kg/m3
same,mass density,[2]; 313.15 K,1099.8 ± 0.69 kg/m3
same,mass density,[2]; 323.15 K,1092.59 ± 0.73 kg/m3
